Test results taken from patent US20110034703A1, “CRYSTAL FORMS OF N-[2-(DIETHYLAMINO)ETHYL]-5-[(5-FLUORO-1,2-DIHYDRO-2-OXO-3H-INDOL-3-YLIDENE)METHYL]-2,4-DIMETHYL-1H-PYRROLE-3-CARBOXAMIDE AND METHODS FOR THEIR PREPARATION” (ratiopharm GmbH, priority 2008, published 2011).
“Also recorded” adds a separate entry of the source.

Assay: Dynamic moisture sorption gravimetry (DMSG), hygroscopicity
Format: physicochemical
Settings: for hygroscopicity (in words): DMSG data; for moisture sorption referred to the weight of the sample: DMSG, change in RH of 5% per hour
Procedure: DMSG was performed using an SPS11-100n instrument (Projekt Messtechnik) at a constant temperature of 25° C. and a change in RH of 5% per hour including isohumid conditions for 5 hours at 0% RH and for 2 hours at 50% RH.

CCN(CC)CCNC(=O)c1c(C)[nH]c(/C=C2\C(=O)Nc3ccc(F)cc32)c1C [Polymorph I, N-[2-(diethylamino)ethyl]-5-[(5-fluoro-1,2-dihydro-2-oxo-3H-indol-3-ylidene)methyl]-2,4-dimethyl-1H-pyrrole-3-carboxamide]
hygroscopicity (in words): low hygroscopicity; also recorded: only very slightly hygroscopic
hygroscopicity (in words) (listed as polymorph I): only slightly hygroscopic
hygroscopicity (in words) (listed as polymorphic form I): very low hygroscopicity
moisture sorption referred to the weight of the sample (25° C.): about 1%

CCN(CC)CCNC(=O)c1c(C)[nH]c(/C=C2\C(=O)Nc3ccc(F)cc32)c1C [Polymorph II, N-[2-(diethylamino)ethyl]-5-[(5-fluoro-1,2-dihydro-2-oxo-3H-indol-3-ylidene)methyl]-2,4-dimethyl-1H-pyrrole-3-carboxamide]
hygroscopicity (in words): clearly hygroscopic
hygroscopicity (in words) (listed as polymorphic form II): slightly more hygroscopic; also recorded: some hygroscopicity
moisture sorption referred to the weight of the sample (25° C., listed as polymorphic form II): more than 6%

CCN(CC)CCNC(=O)c1c(C)[nH]c(/C=C2\C(=O)Nc3ccc(F)cc32)c1C [Polymorph III, N-[2-(diethylamino)ethyl]-5-[(5-fluoro-1,2-dihydro-2-oxo-3H-indol-3-ylidene)methyl]-2,4-dimethyl-1H-pyrrole-3-carboxamide]
hygroscopicity (in words): very low hygroscopicity; also recorded: not hygroscopic at all
hygroscopicity (in words) (listed as polymorphic form III): not hygroscopic
weight gain under DMSG (even at a relative humidity of 95%, 25° C.): does not gain weight
